Data as given in publication PMC7600127, “Peptide-Based TNF-α-Binding Decoy Therapy Mitigates Lipopolysaccharide-Induced Liver Injury in Mice” (Pharmaceuticals, 2020).

System: LPS-induced liver injury
Experiment: Exogenous TNF-α counteraction of SEM18 in LPS-treated mice
Format: in vivo, Balb/cJ mice
Details: LSEM + TNF-α group vs LSEM group; TNF-α 0.3 mg/kg then 3 x 0.15 mg/kg i.p. with SEM18; 24 h after LPS 15 mg/kg; n = 5
Description: Exogenous TNF-α (recombinant mouse TNF-α; R&D Systems, Minneapolis, MN, USA) was used to confirm whether the therapeutic effects of SEM18 peptide were mediated by decreasing TNF-α binding to TNFR1. A set of mice (n = 5, designated as the LSEM + TNF-α group) were treated with LPS as described earlier. Two hours after LPS, exogenous TNF-α (0.3 mg/kg i.p.) was administered, followed by SEM18 (0.3 mg/kg, i.p.). Supplemental doses of exogenous TNF-α administration (0.15 mg/kg, i.p.) and SEM18 (0.15 mg/kg, i.p.) were administered every 2 h three times. These mice were closely monitored for 24 h (starting from LPS administration). All mice survived the experiment. […]
Figure 7 Exogenous tumor necrosis factor (TNF)-α counteracts the effects of SEM18 peptide. (A) Binding of TNF-α to TNF receptor 1, as measured at 24 h after lipopolysaccharide (LPS) administration using immunofluorescence staining of proximity ligation assay (PLA). (B) Plasma concentrations of aspartate aminotransferase (AST) and alanine aminotransferase (ALT) and the wet/dry (W/D) weight ratio of the liver tissues, as measured at 24 h after LPS administration. […] For apoptosis analysis, liver tissues were assayed using the terminal deoxynucleotidyl transferase dUTP nick-end labeling (TUNEL) method and the mean TUNEL-positive cell in liver tissues (per 0.25 mm^2) was calculated, as measured at 24 h after LPS administration. […]

recombinant mouse TNF-α [exogenous TNF-α]
effect of exogenous TNF-α on the therapeutic effects of SEM18 peptide: counteracting the therapeutic effects of SEM18 peptide
